In publication PMC4764201, “High Throughput Screen for Escherichia coli Twin Arginine Translocation (Tat) Inhibitors” (PLoS ONE, 2016):

Assays:
[1] = molecular target: T1, E. coli Tat machinery (IMVs containing overproduced TatABC) (Escherichia coli, UniProt P69423+P69425+P69428); assay: In vitro Tat transport assay of pre-SufI into IMVs, ATP as energy source; format: biochemical; settings: hit compound 20 μM; ATP 1 mM
Procedure: (§1) To directly test for inhibition of Tat transport, a gel-based in vitro Tat transport assay was performed using pre-SufI, an authentic Tat precursor protein [7]. In short, this assay consists of incubating a Tat substrate and a Δψ-generating energy source with inverted membrane vesicles (IMVs) containing overproduced TatABC, digesting remaining external protein with a protease, and then analyzing via SDS-PAGE. This assay was run twice using NADH and ATP (if warranted) as energy sources to generate the necessary Δψ. NADH generates a Δψ using respiratory proteins (i.e., the NADH dehydrogenase and cytochrome bo3 ubiquinol oxidase complexes) and ATP generates a Δψ by reversal of ATP synthase. A true Tat inhibitor would survive both assays. In contrast, a respiration inhibitor is expected to reduce Tat transport when only one of the two energy sources is used (except for an ionophore).
Fig 8 Effect of Hits from the Local HTS on In Vitro Tat Transport. (A) Tat transport assays of pre-SufI using NADH to generate a Δψ. […] Samples were treated with the protease proteinase K, run on SDS-PAGE, and analyzed by in-gel fluorescence imaging. Assays were run in duplicate. Band intensity corresponds to the amount of protein transported into the IMV lumen. The following 7 compounds survived this screen: 1^JS, 51^JS, 55^JS, 111^JS, 181^JS, 202^JS, and 140^JS (boxed in red). (B) Tat transport assays of pre-SufI using ATP to generate a Δψ. All 7 compounds surviving the screen in (A) were tested using a Tat transport assay performed identically to those in (A) except that ATP (1 mM) was used in place of NADH. […]
Isolation of inverted membrane vesicles (IMVs), Western blot analyses and purification of pre-SufI-IAC were performed as described previously. […] The presence of a Δψ was determined by measuring oxonol VI fluorescence in presence of Tat^+ IMVs (A280 = 0.5), as described previously, except that the translocation buffer lacked BSA. Steady-state fluorescence spectra and fluorescence intensities of whole cells producing mCherry proteins were determined with an SLM-8100 spectrofluorometer.

[2] = molecular target: T1, E. coli Tat machinery (IMVs containing overproduced TatABC); assay: In vitro Tat transport assay of pre-SufI into IMVs, NADH as energy source; format: biochemical; settings: hit compound 20 μM; NADH 4 mM; 37°C 30 min
Procedure: as §1
Fig 8 Effect of Hits from the Local HTS on In Vitro Tat Transport. (A) Tat transport assays of pre-SufI using NADH to generate a Δψ. Inverted membrane vesicles (IMVs; A280 = 5.0), the fluorescent substrate pre-SufI-IAC^Atto565 (90 nM), and NADH (4 mM) were incubated at 37°C for 30 min with DMSO (control) or with hit compound (20 μM). Samples were treated with the protease proteinase K, run on SDS-PAGE, and analyzed by in-gel fluorescence imaging. Assays were run in duplicate. Band intensity corresponds to the amount of protein transported into the IMV lumen. The following 7 compounds survived this screen: 1^JS, 51^JS, 55^JS, 111^JS, 181^JS, 202^JS, and 140^JS (boxed in red). (B) Tat transport assays of pre-SufI using ATP to generate a Δψ. All 7 compounds surviving the screen in (A) were tested using a Tat transport assay performed identically to those in (A) except that ATP (1 mM) was used in place of NADH. Compound 55^JS was eliminated by this assay—the other 6 compounds survived (boxed in red). (C) Chemical structure of compound 55^JS, N-(4,7-Dioxo-4,7-dihydro-2,1,3-benzoxadiazol-5-yl)acetamide.
Isolation of inverted membrane vesicles (IMVs), Western blot analyses and purification of pre-SufI-IAC were performed as described previously. Western blots were performed using rabbit anti-mCherry antibodies (1:10,000 dilution) in the presence of 0.1% Triton X-100 and 0.1% Tween 20. The pre-SufI-IAC protein was labeled with Atto565 maleimide, and the resultant fluorescent protein, pre-SufI-IAC^Atto565, was used as a substrate for the in vitro Tat transport assays (A280 = 5.0), as described previously. The presence of a Δψ was determined by measuring oxonol VI fluorescence in presence of Tat^+ IMVs (A280 = 0.5), as described previously, except that the translocation buffer lacked BSA. Steady-state fluorescence spectra and fluorescence intensities of whole cells producing mCherry proteins were determined with an SLM-8100 spectrofluorometer.
Supplementary file pone.0149659.s003.tiff: S3 Fig IC50's for Hit Compound 181^JS. (A) The total cellular mCherry fluorescence (live cell assay; n = 1), (B) the in vitro NADH-dependent Tat transport efficiency of pre-SufI (n = 1), and (C) the maximum transmembrane electrical potential gradient (n = 1) were measured for a range of concentrations of compound 181^JS (S2E Fig). (D) SDS-PAGE gel showing in-gel fluorescence data used in (B). For (A), cells expressing spTorA-mCherry-SsrA were grown under Tat^++ conditions in a 384-well plate in the presence of 0, 0.08, 0.15, 0.3, 0.63, 1.25, 2.5, 5, 10, 20, or 40 μM compound 181^JS, as described for the HTS assay (see Methods). For (B) and (C), IMVs were incubated with the same concentrations of compound 181^JS prior to initiation of Tat transport and Δψ generation by the addition of NADH, as described previously. The red curves are best-fits using y = d + (100-d)/(1+(x/IC50)^b), where b is a slope factor and d is the high concentration asymptote. (TIFF) Click here for additional data file.

T1 sequence (P69423 2-258): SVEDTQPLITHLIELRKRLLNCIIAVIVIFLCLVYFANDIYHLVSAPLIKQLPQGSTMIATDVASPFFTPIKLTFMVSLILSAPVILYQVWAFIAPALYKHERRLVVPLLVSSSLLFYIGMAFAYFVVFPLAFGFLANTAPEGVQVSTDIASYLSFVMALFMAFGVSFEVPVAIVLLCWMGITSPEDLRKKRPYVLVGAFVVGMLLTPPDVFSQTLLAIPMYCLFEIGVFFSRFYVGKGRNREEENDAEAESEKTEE
T1 sequence (P69425 whole entry): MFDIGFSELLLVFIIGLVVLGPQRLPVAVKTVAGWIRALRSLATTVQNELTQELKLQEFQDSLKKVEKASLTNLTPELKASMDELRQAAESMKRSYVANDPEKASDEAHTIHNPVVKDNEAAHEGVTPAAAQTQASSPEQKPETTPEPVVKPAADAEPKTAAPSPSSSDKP
T1 sequence (P69428 whole entry): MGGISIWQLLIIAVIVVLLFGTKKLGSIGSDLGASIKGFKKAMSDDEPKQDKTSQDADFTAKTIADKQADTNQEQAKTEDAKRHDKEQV

CC(=O)NC1=CC(=O)c2nonc2C1=O [Compound 55^JS, N-(4,7-dioxo-2,1,3-benzoxadiazol-5-yl)acetamide]
outcome of ATP-dependent in vitro Tat transport screen (survival = visible inhibition of Tat transport) [1]: eliminated
outcome of NADH-dependent in vitro Tat transport screen (survival = visible inhibition of Tat transport) [2]: survived
